Test results from patent publication US10174314B2, “MiRNA for treating head and neck cancer” (INTERNA TECHNOLOGIES B.V., priority 2011, dated 2019).
Entries after “also recorded” stand apart in the source; their conditions may differ.

What was measured:
VU-SCC-120 [1] = test: ATM inhibitor treatment, CellTiter-Blue cell viability; assay type: cell-based, human
Description: (§1) Both ciOKC and VU-SCC-120 cells were subjected to a concentration range of 40-0.075 μM ATM inhibitor CP466722 (Axon Medchem, Groningen, The Netherlands). After 72 hours cell viability was assessed with the CellTiter-Blue® cell viability assay.

ciOKC cells = test: as above; assay type: cell-based, human; conditions: 72 hours
Description: as §1

ATM expression = test: Knockdown of endogenous ATM expression by shRNA constructs, qRT-PCR in ciOKC; assay type: cell-based, human; conditions: ciOKC transduced with shRNA; qRT-PCR vs control construct
Description: (§2) Viral supernatants were produced by co-transfection of HEK239T cells using FuGENE® 6 (Roche diagnostics, Woerden, The Netherlands) with the pLKO.1 short-hairpin vector together with the packaging and envelop vectors. Both ciOKC and VU-SCC-120 (HNSCC cell line) were transduced with lentiviruses at two following days for four hours in the presence of 3 μg/ml polybrene (Sigma-Aldrich, Zwijndrecht, The Netherlands). In total 48 hours after transduction, cells were subjected to puromycin selection. For ciOKC this was two days 5 μg/ml and subsequently 5 days of 10 μg/ml puromycin (Sigma-Aldrich). For VU-SCC-120 the selection was performed with 1 μg/ml for seven days.
Total RNA was isolated using the mirVana™ miRNA isolation kit (Ambion, Nieuwerkerk aan den IJssel, The Netherlands) according to the instructions of the manufacturer with as only modification that the columns were eluted by 2×25 μl elution buffer. Expression of hsa-miR-181a, hsa-miR-323, hsa-miR-326, hsa-miR-342, hsa-miR-345 and hsa-miR-371 was analyzed by Taqman® microRNA assays following the instructions of the manufacturer (Applied biosystems, Nieuwerkerk aan den IJssel, The Netherlands). ATM expression was analysed by Taqman® gene expression assay. […] Quantitative RT-PCR reactions without reverse transcriptase were carried out in parallel for each RNA sample to exclude signal by contaminating DNA. […]

precursor line M3 = test: Synthetic mimic transfection, cell viability; assay type: cell-based, human; conditions: 30 nM mimic, 96 hours after transfection
Description: (§3) Cells were plated and transfected with miRIDIAN microRNA mimics miR-181a, miR-181a*, miR-181a-2, miR-323-5p, miR-323-3p, miR-326-5p, miR-345-5p, miR-342-3p, miR-342-5p, miR-371-3p, miR-371-5p and non-targeting Mimic Negative Control#1 (Dharmacon, Thermo Fisher Scientific, Lafayette, Colo.) in 96-well flat bottom plates (Greiner Bio-One B.V., Alphen a/d Rijn, The Netherlands). MicroRNA mimic for miR-3157 was obtained from Ambion. The non-targeting siCONTROL#1, and the siRNA PLK1 SMARTpool (Dharmacon) were used as negative and positive controls, respectively. Cells were transfected with […] mimic/siRNA and cell line dependent amounts of DharmaFECT1 (Dharmacon) (Table 6). Cell viability was determined, 96 hours after transfection, by adding CellTiter-Blue reagent (Promega, Leiden, The Netherlands). After two hours of incubation at 37° C. fluorescence was analyzed at 540 nm excitation and 590 nm emission wavelength using an Infinite F200 microplate reader (Tecan, Giessen, The Netherlands).
(§4) The cell proliferation has been assessed 96 hours after the transfection of nucleic acids using Dharmafect and the read-out based on the Alamar Blue (resazurin) fluorescent dye for the assessment of mammalian cell cytotoxicity.

[2] = system: melanoma or colorectal cancer cells; conditions: Poell et al. 2012; cited from earlier work
activated BRAF pathway = conditions: in melanoma or colorectal cancer cells; reported; cited from earlier work
VU-SCC-059 = test: miRNA-3157 mimic transfection, cell viability; assay type: cell-based, human; conditions: 30 nM, 96 hours
Description: as §3, §4

VU-SCC-120 [3] = test: miRNA-3157 mimic transfection, cell viability; assay type: cell-based, human; conditions: 30 nM, 96 hours
Description: as §3, §4

UM-SCC-11B = test: miRNA-3157 mimic transfection, cell viability; assay type: cell-based, human; conditions: 30 nM, 96 hours
Description: as §3, §4

tumour cell lines = test: Synthetic mimic/siRNA transfection, CellTiter-Blue cell viability, panel of cell lines; assay type: cell-based, human; conditions: 30 nM mimic, 96 hours after transfection
Description: as §3, §4

normal keratinocytes = test: miRNA-3157 mimic transfection, cell viability; assay type: cell-based, human; conditions: 30 nM, 96 hours
Description: as §3
Normal oral keratinocytes were isolated and cultured as previously described (van Zeeburg et al., 2010). […]
as §4

VU-SCC-120 [4] = test: Lentiviral shRNA ATM knockdown, cell survival; assay type: cell-based, human; conditions: VU-SCC-120 vs ciOKC
From the text: Lentiviral vectors with short-hairpin RNA sequences targeting ATM were obtained from the TRC short-hairpin library (Sigma-Aldrich, Zwijndrecht, the Netherlands) that is available at VU university medical center. Each shRNA sequence is complementary to an unique part of the ATM mRNA sequence.
as §2
Therefore we introduced five lentiviral shRNA constructs designed to specifically knockdown ATM expression. Each shRNA sequence was complementary to an unique part of the ATM mRNA sequence.

Compound: COc1cc2ncnc(-n3nc(-c4ccccn4)nc3N)c2cc1OC [CP466722]
- IC50 (VU-SCC-120 [1]; VU-SCC-120, 72 hours): 2600 nM
- change of IC50 ciOKC to VU-SCC-120 (VU-SCC-120 [1]; p-value <0.05 by T-testing): 3 fold
- IC50 (ciOKC cells): 8.2 µM

Compound: ATM shRNA number 5: lentiviral pLKO.1 short-hairpin construct targeting ATM from the TRC library; probably SEQ ID NO: 359 (CCGGGCCGTCAACTAGAACATGATACTCGAGTATCATGTTCTAGTTGACGGCTTTTTG)
- downregulation of ATM expression levels (ATM expression): no significant downregulation

Compound: miRNA-3157: microRNA mimic for miR-3157 from Ambion; mature UUCAGCCAGGCUAGUGCAGUCU (SEQ ID NO: 364) (listed as RNA, chemistry not given here)
- cell viability in precursor line M3 (precursor line M3): not lethal
- lethality to melanoma or colorectal cancer cells [2]: lethal
- inhibition of activated BRAF pathway (activated BRAF pathway): selective inhibitor of activated BRAF pathway
- cell viability (VU-SCC-059): inhibits cell viability
- cell viability (VU-SCC-120 [3]): inhibits cell viability
- cell viability (UM-SCC-11B): inhibits cell viability
- cell viability in tumour cell lines (tumour cell lines): lethal for three out of four tumor cell lines
- cell viability (normal keratinocytes): not lethal; also recorded: does not inhibit cell viability

Compound: mimic 323-5p: miRIDIAN microRNA mimic (Dharmacon); AGGUGGUCCGUGGCGCGUUCGC (SEQ ID NO: 22) (listed as RNA, chemistry not given here)
- cell viability in tumour cell lines (tumour cell lines): cause a decrease in all tumour cell lines

Compound: shRNA ATM1: lentiviral pLKO.1 short-hairpin construct targeting ATM from the TRC library; probably SEQ ID NO: 355 (CCGGCCTGCCAACATACTTTAAGTACTCGAGTACTTAAAGTATGTTGGCAGGTTTTTG)
- toxicity in the tumour cell line as compared to the ciOKC cells (therapeutic window) (VU-SCC-120 [4]): at least 8 times
